For data set [1], the system named is human neutrophils. As to the kind of experiment: Human neutrophil viability, Cell Counting Kit-8. The class given is cell-based. As to conditions: cells in PBS or RPMI; compared to buffer alone. The procedure: Cell viability in the presence of increasing amounts of PA-dPEG24 was determined using the Cell Counting Kit-8 (Dojindo). Cell Counting Kit-8 (CCK-8) is a sensitive colorimetric assay for the determination of cell viability in cell proliferation and cytotoxicity assays. The highly water-soluble tetrazolium salt, WST-8, is reduced by dehydrogenase activities in cells to give a yellow-color formazan dye, which is soluble in the tissue culture media. The amount of the formazan dye, generated by the activities of dehydrogenases in cells, is directly proportional to the number of living cells. Neutrophils were isolated from whole blood. Briefly, heparinized whole blood was collected from four different individuals (n=4). The blood was spun on a Hypaque/Ficoll gradient. The pellet was collected, and 3% dextran was added for 20 minutes. The supernatant was collected and washed several times. After a red blood cell lysis, the neutrophils were resuspended in either PBS or RPMI at a concentration of 1.0×10^6 cells/mL. ‘Fresh’ neutrophils were taken at this point and 100 uL (100,000 cells/well) were added to a 96-well plate. 10 uL of CCK-8 (Dojindo Molecular Technologies) was added to each well for 2 hours at 37 C. Absorbance at 450 nm was read to determine viability. […] Absorbance at 450 nm was read to determine viability.

In data set [2] the test system is inflammatory cytokines and chemokines. The data set is described as follows: Plasma cytokine and chemokine levels by xMAP bead-based immunoassay in two-hit ALI rat model. It is filed as in vivo.
The subject of data set [3] is human monocytes. As to the kind of experiment: C1q-immune complex binding to C1q receptors on human monocytes. It is filed as cell-based. As to conditions: increasing amounts of peptide. The text has this: Human monocytes were purified and allowed to adhere to a microtiter plate. […] Absorbance was read at 450 nm. N=3. Bars indicate standard error of the mean (SEM).
Freshly purified human monocytes were allowed to adhere to a 96 well tissue culture plates and nonadherent lymphocytes were removed. […] Unbound immune complexes were washed off and an anti-rabbit HRP antibody was used to detect bound immune complexes, followed by development with TMB and quenching of the reaction with 1N H2SO4 and detection at 450 nm in a plate reader. […] Therefore, without wishing to be bound by theory, this increase has implications for diseases where immune complexes contribute to pathogenesis, including numerous inflammatory ophthalmologic diseases (e.g., uveitis or retinitis), which are situations were increased rapidity of immune complexes can potentially lessen disease severity.

The target of data set [4] is C1q (Homo sapiens, UniProt P02745+P02746+P02747). The data set is described as follows: ELISA-type plate binding assay, C1q (positive control ligand). On the technique in general: An ELISA detects its analyte on a solid surface through an enzyme-linked reagent.
C1q, sequence (P02745 23-245): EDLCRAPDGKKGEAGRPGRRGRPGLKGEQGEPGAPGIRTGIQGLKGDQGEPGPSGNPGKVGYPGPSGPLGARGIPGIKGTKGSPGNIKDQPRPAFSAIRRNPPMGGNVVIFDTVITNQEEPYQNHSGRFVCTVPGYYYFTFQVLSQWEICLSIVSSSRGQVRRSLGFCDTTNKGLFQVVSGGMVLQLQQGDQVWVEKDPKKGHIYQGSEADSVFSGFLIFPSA
C1q, sequence (P02746 28-253): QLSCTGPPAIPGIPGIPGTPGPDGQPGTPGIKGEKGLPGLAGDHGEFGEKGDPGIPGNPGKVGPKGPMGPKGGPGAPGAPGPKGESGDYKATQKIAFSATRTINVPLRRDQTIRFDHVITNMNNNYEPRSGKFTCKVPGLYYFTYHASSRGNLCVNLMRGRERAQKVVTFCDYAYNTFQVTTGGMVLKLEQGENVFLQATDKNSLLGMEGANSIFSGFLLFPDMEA
C1q, sequence (P02747 29-245): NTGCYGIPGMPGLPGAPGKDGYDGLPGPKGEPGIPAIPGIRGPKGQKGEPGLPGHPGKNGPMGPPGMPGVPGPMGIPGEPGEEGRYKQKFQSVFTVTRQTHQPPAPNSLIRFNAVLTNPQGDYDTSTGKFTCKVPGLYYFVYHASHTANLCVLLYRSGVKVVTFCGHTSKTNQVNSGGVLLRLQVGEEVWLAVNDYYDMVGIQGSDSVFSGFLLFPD

Take `CC[C@H](C)[C@H](N)C(=O)N[C@@H](C)C(=O)N[C@@H](CC(C)C)C(=O)N[C@H](C(=O)N[C@@H](CC(C)C)C(=O)N[C@@H](CCC(=O)O)C(=O)N1CCC[C@H]1C(=O)N[C@H](C(=O)N[C@@H](CS)C(=O)N[C@@H](CS)C(=O)N[C@@H](CCC(N)=O)C(=O)N[C@@H](CCC(=O)O)C(=O)N[C@@H](CCCNC(=N)N)C(=O)N[C@@H](C)C(=O)N[C@@H](C)C(=O)NCCOCCOCCOCCOCCOCCOCCOCCOCCOCCOCCOCCOCCOCCOCCOCCOCCOCCOCCOCCOCCOCCOCCOCCOCCC(=O)O)[C@@H](C)CC)[C@@H](C)CC` [RLS-0071]: the “neutrophil viability (CCK-8, absorbance 450 nm)” value in data set [1] is recorded as “dose-dependent increase in viability”. In addition, the “levels of anti-inflammatory Th2 cytokine IL-4” value in data set [2] (10 or 160 mg/kg before or 40 or 160 mg/kg after transfusion, FIG. 3) is “did not significantly decrease”. The “other cytokine and growth factor levels (EGF, LIX, VEGF, Leptin, GRO, Fractalkine, GM-CSF, Eotaxin, G-CSF)” value in data set [2] (10 or 160 mg/kg before or 40 or 160 mg/kg after transfusion, FIG. 4) is reported as “either significant reduction or a trend toward reduced levels”. Besides, the “cytokine levels IL-5, IL-18, IL-1alpha, IL-13, IL-17, IL-12, IP-10” value in data set [2] (10 or 160 mg/kg before or 40 or 160 mg/kg after transfusion, terminal blood plasma, FIG. 2) is on record as “either significant pro-inflammatory cytokine reduction or a trend toward reduced levels”. In addition, in data set [2] (FIG. 4), the “VEGF level in 2-hit rat acute lung injury model” value is reported as “downregulate VEGF”. Moreover, the “pro-inflammatory cytokines (IL-1a, IL-1b, IL-6, IFN-g, IL-17, IL-18, TNFa, RANTES) and chemokines (MCP-1, MIP-1a, MIP-2)” value in data set [2] (prophylactic 10 or 160 mg/kg, rescue 40 or 160 mg/kg, terminal 4-hour time point, vs untreated 2-hit animals, some significant) is “reduced levels of cytokines and chemokines”. For the same compound, the “cytokine levels IFNgamma, IL-6, IL-2, IL-10, TNFalpha, MCP-1, RANTES, MIP1alpha, IL-1beta, MIP-2” value in data set [2] (single dose 10 or 160 mg/kg before or 40 or 160 mg/kg after transfusion, terminal blood plasma, FIG. 1) is “either significant pro-inflammatory cytokine reduction or a trend toward reduced levels”. Besides, in data set [3], the “amount of C1q detected on monocytes” value is reported as “increased with increasing amounts of PA-dPEG24” and the “level of C1q-immune complexes bound to monocytes” value was “did not reduce the level of C1q-immune complexes”. In addition, the “binding to C1q” value in data set [4] (1% gelatin/PBS buffer) is on record as “bound PA-dPEG24 in a dose-dependent manner”. Further, the “binding to C1q” value in data set [4] (in human plasma) is “bound PA-dPEG24 in a dose-dependent manner”. For the same compound, the “time RLS-0071 could be detected in vitreous post-IVT injection” value (IVT 160 mg/ml in 5 microliters) is listed as “up to 10 days”. For the same compound, the “half-life, IVT versus IV” value (IVT 160 mg/ml vs IV 200 mg/ml) is recorded as “much longer half-life in the eye than peptide delivered intravenously”.

These data come from patent US20240010681A1, “PEPTIDES AND METHODS OF USE” (REALTA LIFE SCIENCES, INC., priority 2020, published 2024).
